In ChEMBL document CHEMBL2034967, “Lipophilic amines as potent inhibitors of N-acylethanolamine-hydrolyzing acid amidase” (Bioorg Med Chem, 2012) one finds Activity, inhibition and IC50 data, which are given here for 30 compounds.

Each structure is given as a SMILES string. Active and inactive are the calls of the source. The calls are words filed in the database; no cut-off is given here.

The term inhibition denotes how much of the control response was suppressed. By IC50 is commonly meant the concentration needed to halve the response being measured.

Test [1] has as its target T1, N-acylethanolamine-hydrolyzing acid amidase (Rattus norvegicus) (UniProt Q5KTC7).
T1 sequence (whole entry): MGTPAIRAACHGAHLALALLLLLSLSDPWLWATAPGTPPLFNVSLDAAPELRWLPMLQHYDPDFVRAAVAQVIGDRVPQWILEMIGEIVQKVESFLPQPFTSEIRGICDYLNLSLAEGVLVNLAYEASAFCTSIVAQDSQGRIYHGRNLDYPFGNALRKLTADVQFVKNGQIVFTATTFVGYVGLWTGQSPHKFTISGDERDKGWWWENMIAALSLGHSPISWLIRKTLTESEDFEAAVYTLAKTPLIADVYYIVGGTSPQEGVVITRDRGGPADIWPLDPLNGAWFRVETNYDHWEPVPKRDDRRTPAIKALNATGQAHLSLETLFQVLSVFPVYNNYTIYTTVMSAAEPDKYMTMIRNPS
The experiment in a line: Inhibition of Wistar/ST rat lung NAAA assessed as residual activity for conversion of [14C]PEA to [14C]palmitic acid at 100 uM after 20 mins relative to control.

The target in test [2] is T1, N-acylethanolamine-hydrolyzing acid amidase (Rattus norvegicus). In words: Inhibition of Wistar/ST rat lung NAAA assessed as conversion of [14C]PEA to [14C]palmitic acid at 100 uM after 20 mins.
Test [3] deals with T2, N-acylethanolamine-hydrolyzing acid amidase (Rattus norvegicus, UniProt Q5KTC7).
T2 sequence (Q5KTC7 whole entry): T1 sequence (whole entry)
In words: Inhibition of Wistar/ST rat lung NAAA assessed as conversion of [14C]PEA to [14C]palmitic acid after 20 mins.

In test [4] the target is T3, Fatty-acid amide hydrolase 1 (Rattus norvegicus) (UniProt P97612).
T3 sequence (whole entry): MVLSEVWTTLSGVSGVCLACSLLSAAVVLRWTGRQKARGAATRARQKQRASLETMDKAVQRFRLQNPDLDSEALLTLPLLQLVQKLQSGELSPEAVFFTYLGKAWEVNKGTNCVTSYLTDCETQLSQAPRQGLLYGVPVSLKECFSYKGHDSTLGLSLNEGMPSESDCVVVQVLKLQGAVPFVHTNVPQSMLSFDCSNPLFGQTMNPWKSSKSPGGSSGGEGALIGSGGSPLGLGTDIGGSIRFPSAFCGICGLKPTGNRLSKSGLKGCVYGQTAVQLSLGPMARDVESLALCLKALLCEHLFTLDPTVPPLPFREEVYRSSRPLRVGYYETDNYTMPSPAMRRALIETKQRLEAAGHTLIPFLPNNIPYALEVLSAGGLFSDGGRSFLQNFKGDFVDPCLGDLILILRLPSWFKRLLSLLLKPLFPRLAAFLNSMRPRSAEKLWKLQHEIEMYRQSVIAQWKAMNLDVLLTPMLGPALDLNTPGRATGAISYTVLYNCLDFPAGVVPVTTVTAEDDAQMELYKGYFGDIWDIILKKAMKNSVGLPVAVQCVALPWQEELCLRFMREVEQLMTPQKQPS
The experiment in a line: Inhibition of Wistar/ST rat liver FAAH assessed as conversion of [14C]PEA to [14C]palmitic acid at 100 uM at pH 5 after 20 mins.

Test [5] deals with T1, N-acylethanolamine-hydrolyzing acid amidase (Rattus norvegicus). In words: Competitive inhibition of Wistar/ST rat lung NAAA using [14C]PEA as substrate at 10 uM by Line-Weaver Burk plot analysis.
Test [6] concerns the target T3, Fatty-acid amide hydrolase 1 (Rattus norvegicus). In words: Inhibition of Wistar/ST rat liver FAAH assessed as conversion of [14C]PEA to [14C]palmitic acid at 100 uM at pH 8.5 after 20 mins.
The target in test [7] is T1, N-acylethanolamine-hydrolyzing acid amidase (Rattus norvegicus). In words: Competitive inhibition of Wistar/ST rat lung NAAA using [14C]PEA as substrate at 5 uM by Line-Weaver Burk plot analysis.

Take `CCCCCCCCCCCCCCOCCCN`: the Activity in test [1] came to 71%.

Consider `CCCCCCCCCCCCCC(=O)OCCN`, for which the Activity in test [1] was determined as 46%.

For `CCCCCCCCCCCCCCCC[N+](C)(C)C`, the inhibition entry in test [2] was “Active”.

As to `CCCCCCCCCCCCCCCC(=O)NCC(=O)O`, the inhibition entry in test [2] is “inactive”.

Turning to `CCCCCCCCCCCCCCCCOCCN`, the Activity in test [1] turned out to be 91%.

As to `CCCCCCCCCCCCCCOC(=O)CCN`, the Activity in test [1] worked out at 30%.

On to `CCCCCCCCCCCCCCOC(=O)CN`, for which the Activity in test [1] amounted to 16%.

Consider `CCCCCCCCCCCC(=O)OCCCN`, for which the Activity in test [1] amounted to 63%.

Take `CCCCCCCCCCCCCCCCOCCCN`: the Activity in test [1] was 84%.

With `CCCCCCCCCCCCCCCCN`, in test [2], the inhibition result was “Active”.

Regarding `CCCCCCCCCCCCOC(=O)CN`, the Activity in test [1] came to 34%.

Regarding `CCCCCCCCCCCCN`, the inhibition entry in test [2] was “Active”.

As to `CCCCC/C=C\C/C=C\C/C=C\C/C=C\CCCC(=O)NCC(=O)O`, the inhibition entry in test [2] was “inactive”.

As to `CCCCCCCCCCCCCC(=O)OCCCN`, the Activity in test [1] was 46%.

For `CCCCCCCCCCCCCCCOC(=O)CN`, the Activity in test [1] is 42%.

`CCCCCCCCCCCCCCCC(=O)OCCN`: in test [1], the Activity was 50%.

For `CCCCCCCCCCCCCCCCOC(=O)CN`, in test [1], the Activity is 71%.

For the compound `CCCCCCCCCCCCCOC(=O)CN`, the IC50 in test [3] was determined as 11.8 µM. Also, in test [4], the inhibition turned out to be 7%. The inhibition result in test [5] is “Active”. In test [6], the inhibition entry is “inactive”. Moreover, in test [1], the Activity came out at 11%.

Regarding `CCCCCCCCCC(=O)OCCN`, the Activity in test [1] worked out at 89%.

On to `CCCCCCCCCCCCCCCN` [PENTADECYLAMINE], for which, in test [3], the IC50 was found to be 5.7 µM. For the same compound, the inhibition result in test [2] and in test [7] was “Active” each time. Also, the inhibition in test [4] is 25%. Moreover, the inhibition entry in test [6] was “inactive”.

Regarding `CCCCCCCCCCCCCCCNC(=O)C1CCCCC1`, in test [2], the inhibition entry is “inactive”.

As to `CCCCCCCCCCCCOCCCN`, the Activity in test [1] was 73%.

Take `CCCCCCCCCCCCCCN`: the inhibition result in test [2] was “Active”.

For `CCCCCCCCCCCC(=O)OCCN`, the Activity in test [1] was 74%.

As for `CCCCCCCCCC(=O)OCCCN`, the Activity in test [1] worked out at 55%.

`CCCCCCCCCCCCCCOCCN`: the Activity in test [1] amounted to 48%.

With `CCCCCCCCCCCCCOC(=O)CCN`, the Activity in test [1] came out at 29%.

`CCCCCCCCCCCCCCCC(=O)OCCCN`: the Activity in test [1] came out at 48%.

`CCCCCCCCCCCCOC(=O)CCN`: the Activity in test [1] was 51%.

Turning to `CCCCCCCCCCCCOCCN`, the Activity in test [1] came out at 40%.
